Test results published in publication PMC2714806 (2009).
Several values for one entry are separate records, joined by “and”; a condition that tells them apart may be missing. Equal entries are not always repeated. Entries after “also recorded” stand apart in the source; their conditions may differ. Ends that are not written are not given here.

What was measured:
[1] = assay type: binding; settings: pH 6.5
NR1b/2B NMDA receptor = assay type: cell-based; settings: pH 7.35
[2] = assay type: binding; settings: pH 6.5; remark: listed apart in the source
[3] = assay type: physicochemical; settings: pH 6.5
[4] = tested on: NR1b/2A and NR1b/2B NMDA receptors; assay type: cell-based; settings: 40 µM
NR1b/2A NMDA receptor = assay type: cell-based; settings: pH 7.35
[5] = assay type: physicochemical; settings: pH 6.5; remark: listed apart in the source
NMDA receptor = settings: cited from earlier work
[6] = tested on: NR1a/NR2A-, NR1a/NR2B-, NR1b/NR2A-, and NR1b/NR2B-containing receptors; settings: cited from earlier work

con-T[γ4E,K7γ,V17γ] [con-T-tri]
n (stoichiometry of metal ion binding) [1]: 1.0 | effect on NMDA-evoked current (NR1b/2B NMDA receptor): modest inhibitory activity | Kd [2]: 26 µM | helicity (in words) [3]: marginal helicity; also recorded: high percentage of helix content; also recorded: negligible helicity; also recorded: highly helical character | NR2A-/NR2B-selectivity [4]: NR2B selective | effect on NMDA-evoked current (NR1b/2A NMDA receptor): current potentiation; also recorded: Potentiation of currents | MWapp (apparent molecular weight) [5]: 3320 ± 300 and 6490 ± 450 and 3460 ± 190 | self-association [5]: did not result in marked self-association

GEγγYQγMLγNLRγAEVKKNA-NH2 [con-T[K7γ]]
inhibition of ion flow through NMDA receptor complexes (NMDA receptor): potent and specific inhibitors

con-T[M8N]: Met8-substituted con-T peptide (GEEEYQKNLENLREAEVKKNA; ends and bridges not checked; UniProt P17684 1-21, looked up, variant M8N)
NR2A-/NR2B-selectivity [6]: non-selective

con-T: naturally-occurring conantokin derived from Conus tulipa (GEEEYQKMLENLREAEVKKNA; ends and bridges not checked; UniProt P17684 1-21, looked up)
antagonism of NMDA receptor activity ([6]; 40 µM): completely antagonizes NMDA receptor activity at all subunit combinations | inhibition of current flow through the NMDA receptor (NMDA receptor): potent and selective inhibitor of current flow through the NMDA receptor
